Measured values reported in patent US10085958B2, “Bromfenac bioavailability” (BAUSCH & LOMB PHARMA HOLDINGS CORP., priority 2011, dated 2018).
“And” between values parts separate entries of the source, which are not always exact repeats. Identical values can stand only once. Like-named read-outs stand apart in the source and are kept apart here.

How the values were obtained:
[1] = format: in vivo; settings: for Mortality/Morbidity: animals found dead or euthanized prior to scheduled euthanasia/number in group
[2] = Twenty-four hour ocular pharmacokinetics of ^14C-labeled bromfenac following topical instillation; format: in vivo, New Zealand White rabbit
Procedure: Twenty-four hour ocular pharmacokinetics of a formulation of ^14C-labeled bromfenac following topical instillation in New Zealand White rabbit eyes was evaluated. ^14C-labeled bromfenac was analyzed to verify the radioactive purity prior to use. Dosing solutions were prepared and analyzed after dosing to confirm the radiochemical purity of the dosing solution. The radioactive concentration of the dosing solutions was calculated by liquid scintillation counting (LSC). Treatment parameters are summarized below:
On Day 1, 50 μL of the dosing solution was topically instilled into both eyes of each animal. Animals were weighed at randomization and prior to dosing on Day 1. Animals were euthanized by an intravenous injection of a commercial euthanasia solution at 1 hour±5 minutes, 2 hours±15 minutes, 4 hours±15 minutes, 8 hours±15 minutes, 12 hours±15 minutes, or 24 hours±15 minutes following dosing. After euthanasia, each eye was rinsed with normal saline. Aqueous humor was collected from both eyes and the weight was recorded. The globes were enucleated and frozen in liquid nitrogen. The globes were stored at ≤−70° C. prior to dissection. The iris/ciliary body, lens, vitreous, retina, choroid, sclera, conjunctiva, and cornea were collected from each eye, weighed, and stored at ≤−15° C. prior to analysis. Aqueous humor samples were stored at ≤−15° C. until analyzed.
All radioactivity measurements were performed using a Beckman Liquid Scintillation Spectrometer. The iris/ciliary body, lens, retina, choroid, sclera, conjunctiva, and cornea from each eye were weighed into combustion cones and combusted. Duplicate aliquots of each aqueous humor sample and each vitreous humor sample were transferred to LSC vials using Insta-Gel as the scintillation fluid and the amount of radioactivity was determined.
The dosing solution was prepared by weighing 2.41 mg of ^14C-labeled bromfenac sodium and dissolving into 3 mL diluent to achieve a non-radioactive concentration of 0.7 mg/mL (0.07% w/v) bromfenac free acid, a radioactive concentration of 129.7 μCi/mL, and a pH of 7.8.
On Day 1, 50 μL of the dosing solution was topically instilled into both eyes of each animal. The dosing solution was instilled into the conjunctival sac using a calibrated pipette, and the eyelid was held closed for 5-10 seconds following the dose. Any dosing solution found at the margin of the eyelid after dosing was recovered with a Lasik spear. The time of each dose administration was recorded.
Animals were euthanized by an intravenous injection of a commercial euthanasia solution at 1 hour±5 minutes, 2 hours±15 minutes, 4 hours±15 minutes, 8 hours±15 minutes, 12 hours±15 minutes, or 24 hours±15 minutes following dosing.
After euthanasia, each eye was rinsed with normal saline. Aqueous humor was collected from both eyes and the weight was recorded. The globes were enucleated and frozen in liquid nitrogen. The globes were stored at ≤−70° C. prior to dissection. The iris/ciliary body, lens, vitreous, retina, choroid, sclera, conjunctiva, and cornea were collected from each eye, weighed, and stored at ≤−15° C. prior to analysis. The start time of necropsy was recorded. Aqueous humor samples were stored at ≤−15° C. until analyzed.
The iris/ciliary body, lens, retina, choroid, sclera, conjunctiva, and cornea from each eye were weighed into combustion cones and combusted with the exception of the left eye from Animal No. 731. The retina, choroid, and cornea from this eye were lost during processing and could not be recovered. No radioactivity data is available for these tissues.
Combusted samples were trapped in […] (RJ Harvey) present in LSC vials and the amount of radioactivity determined by LSC. Duplicate aliquots of each aqueous humor sample (approximately 25 μL) were transferred to LSC vials and the amount of radioactivity was determined by LSC using Insta-Gel as the scintillation fluid. […]

[3] = Group A, 1 hr. post-dose, 0.07% pH 7.8, 50 μL per eye topical
[4] = Group B, 2 hr. post-dose, 0.07% pH 7.8, 50 μL per eye topical
[5] = Group C, 4 hr. post-dose, 0.07% pH 7.8, 50 μL per eye topical
[6] = Group D, 8 hr. post-dose, 0.07% pH 7.8, 50 μL per eye topical

With `Nc1c(CC(=O)O)cccc1C(=O)c1ccc(Br)cc1` [^14C-labeled Bromfenac] the Mortality/Morbidity ([1]; Group A, necropsy 1 hour post-dose) was 0/3, the Mortality/Morbidity ([1]; Group B, necropsy 2 hours post-dose) was 0/3 and the Mortality/Morbidity ([1]; Group C, necropsy 4 hours post-dose) was 0/3. For the same compound, the Mortality/Morbidity ([1]; Group D, necropsy 8 hours post-dose) was 0/3, the Mortality/Morbidity ([1]; Group E, necropsy 12 hours post-dose) was 0/3 and the Mortality/Morbidity ([1]; Group F, necropsy 24 hours post-dose) was 0/3. For the same compound, the “Mortality, whole study” value ([1]; all groups, up to 24 hours after 50 μL 0.07% per eye) was “no mortality”, the “Radioactivity detected by LSC in the lens and the vitreous humor” value ([2]; 24 hour study period) was “very low and close to background values” and the “Radioactive residues, Total of eye tissues, Mean” value [2, 3] was 1.187 Percent Dose. The “Radioactive residues, Total of eye tissues, single eyes OD/OS” value [2, 3] was 0.954 Percent Dose and 1.172 Percent Dose and 1.011 Percent Dose and 1.423 Percent Dose and 1.185 Percent Dose and 1.374 Percent Dose, the “Radioactive residues, Total of eye tissues, Mean” value [2, 4] was 0.867 Percent Dose and the “Radioactive residues, Total of eye tissues, single eyes OD/OS” value [2, 4] was 0.923 Percent Dose and 0.762 Percent Dose and 0.782 Percent Dose and 1.246 Percent Dose and 0.725 Percent Dose and 0.761 Percent Dose. The “Radioactive residues in Conjunctiva, Mean” value [2, 5] was 0.142 Percent Dose, the “Radioactive residues, Total of eye tissues, Mean” value [2, 5] was 0.550 Percent Dose and the “Radioactive residues in Cornea, Mean” value [2, 6] was 0.471 ppm (μg-eq/g). The “Radioactive residues, Total of eye tissues, Mean” value [2, 6] was 0.228 Percent Dose, the “Radioactive residues, Total of eye tissues, Mean” value ([2]; Group E, 12 hr. post-dose, 0.07% pH 7.8, 50 μL per eye topical) was 0.107 Percent Dose and the “Radioactive residues, Total of eye tissues, Mean” value ([2]; Group F, 24 hr. post-dose, 0.07% pH 7.8, 50 μL per eye topical) was 0.034 Percent Dose. For the same compound, the “Tissues with the highest concentrations of drug-derived radioactivity” value ([2]; mean ppm (μg/g), 24 hour study period) was “cornea, conjunctiva, and sclera”.
